Assay results as given in patent US12528814B2, “Bifunctional degraders of interleukin-1 receptor-associated kinases and therapeutic use thereof” (NURIX THERAPEUTICS, INC., priority 2020, dated 2026).
Read-outs that look alike come from different tables or passages of the source.

Columns and labels:
IRAK4 [1] = biological target: T1, IRAK4 (Homo sapiens (Human), UniProt Q9NWZ3); assay: IRAK4 Biochemical HTRF Kinase Assay; conditions: read-out: IRAK4 HTRF biochemical: IC50
Outline: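 HTRF KinEASE STK S1 format measuring IRAK4 phosphorylation of biotinylated peptide; reaction solution of 5 μM STK-S1, 10 mM ATP, 10 mM MgCl2 added (stock, to 10 μl final), 90 min at ambient temperature, detection 60 min. IC50 from sixteen-point duplicate curves by non-linear regression.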
Target sequence in this assay (Q9NWZ3 whole entry, species assumed): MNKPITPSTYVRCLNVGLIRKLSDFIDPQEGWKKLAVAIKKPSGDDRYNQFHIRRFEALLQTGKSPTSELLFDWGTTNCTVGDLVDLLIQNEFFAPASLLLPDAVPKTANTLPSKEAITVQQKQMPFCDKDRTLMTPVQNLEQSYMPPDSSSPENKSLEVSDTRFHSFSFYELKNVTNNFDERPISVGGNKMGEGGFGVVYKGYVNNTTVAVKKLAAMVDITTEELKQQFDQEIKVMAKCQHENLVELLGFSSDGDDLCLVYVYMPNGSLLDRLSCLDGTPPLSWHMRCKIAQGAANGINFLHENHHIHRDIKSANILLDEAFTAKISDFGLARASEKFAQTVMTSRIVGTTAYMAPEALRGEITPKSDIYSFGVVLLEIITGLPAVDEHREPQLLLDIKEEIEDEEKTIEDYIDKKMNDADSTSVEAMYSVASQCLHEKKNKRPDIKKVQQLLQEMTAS

IRAK4 [2] = biological target: T1, IRAK4; assay: IRAK4 Degradation HiBiT Assay; conditions: HiBiT-tagged Jurkat cells, 4 hrs; for DC50: read-out: Cellular IRAK4 HiBiT: DC50; for Dmax: Jurkat
Target sequence in this assay (Q9NWZ3 whole entry): as the sequence (Q9NWZ3 whole entry, species assumed) above
Procedure: Compound dilution series (11-point, 3.16-fold dilutions in DMSO, columns 1-11 and 12-22) at 500× the final required concentrations were prepared in Labcyte LDV 384-well plates (cat. no. LP-0200) using a Labcyte Echo 550 Liquid Handler. The 500× solutions ranged from 5 mM to 0.5 μM (final assay concentration range 10 μM to 0.1 nM). Using the Echo, the 500× solutions were stamped into white, 384-well assay plates (Corning, cat. no. 3570) at 60 nL/well. […] C-terminal HiBiT-tagged Jurkat cells (polyclonal cell line or clone 8D5) were plated at 1×10^6 cells/mL, 30 μL/well (3×10^4 cells/well) in complete RPMI (10% FBS, 1% L-glutamine). Cells were incubated for 4 hrs at 32° C./6% CO2.
Following incubation, 30 uL of complete Nano-Glo HiBiT Lytic Detection Reagent (Nano-Glo HiBiT Lytic Buffer with 1:50 Nano-Glo HiBiT Lytic Substrate and 1:100 LgBiT Protein; Promega cat. no. N3040) was added. Cells were further incubated for 10 min at room temperature (RT). Luminescence units (LU) were read on an EnVision plate reader (Perkin Elmer, 0.1 sec per well). Percent IRAK4 remaining per sample was calculated as follows:
Using Graphpad Prism, % IRAK4 remaining values were plotted as a function of compound concentration.

[3] = read-out: Cellular IRAK4 HiBiT: Dmax, Table 5, multiple runs

IC50 (IRAK4 [1]; Table 5, multiple runs) | DC50 (IRAK4 [2]; Table 5, multiple runs) | Dmax (IRAK4 [2]; [3]) | IC50 (IRAK4 [1]; Table 4) | Dmax (IRAK4 [2]; read-out: Cellular IRAK4 HiBiT: Dmax, Table 4) | DC50 (IRAK4 [2]; Table 4) | Compound
2.1 nM | > 970 nM | – | – | – | – | CC(C)Nc1cc(-c2ccc3cc(C#N)cnn23)ncc1-c1nnc(N2CCN(CC3CCN(Cc4ccc5c(c4)C(=O)N(C4CCC(=O)NC4=O)C5=O)CC3)CC2)s1 (centres unmarked) [Example 85, 7-(5-(5-(4-((1-((2-(2,6-dioxopiperidin-3-yl)-1,3-dioxoisoindolin-5-yl)methyl)piperidin-4-yl)methyl)piperazin-1-yl)-1,3,4-thiadiazol-2-yl)-4-(isopropylamino)pyridin-2-yl)pyrrolo[1,2-b]pyridazine-3-carbonitrile]
0.8 nM | 25.3 nM | 91% | – | – | – | CNc1cc(-c2ccc3cc(C#N)cnn23)ncc1-c1nnc(C23CCC(NC(=O)CCOCCNc4ccc5c(c4)C(=O)N(C4CCC(=O)NC4=O)C5=O)(CC2)CC3)s1 (centres unmarked) [Example 102, N-(4-(5-(6-(3-cyanopyrrolo[1,2-b]pyridazin-7-yl)-4-(methylamino)pyridin-3-yl)-1,3,4-thiadiazol-2-yl)bicyclo[2.2.2]octan-1-yl)-3-(2-((2-(2,6-dioxopiperidin-3-yl)-1,3-dioxoisoindolin-5-yl)amino)ethoxy)propanamide]
17.3 nM | 315 nM | 104% | 17.3 nM | 104% | 336 nM | Cc1ncsc1-c1ccc(CNC(=O)[C@@H]2C[C@@H](O)CN2C(=O)[C@@H](NC(=O)C2(F)CC2)C(C)(C)C)c(OCCCCCC(=O)N2CCN(c3nnc(-c4cnc(-c5ccc6cc(C#N)cnn56)cc4NC(C)C)s3)CC2)c1 [Example 42, (2S,4R)—N-(2-((6-(4-(5-(6-(3-cyanopyrrolo[1,2-b]pyridazin-7-yl)-4-(isopropylamino)pyridin-3-yl)-1,3,4-thiadiazol-2-yl)piperazin-1-yl)-6-oxohexyl)oxy)-4-(4-methylthiazol-5-yl)benzyl)-1-((S)-2-(1-fluorocyclopropane-1-carboxamido)-3,3-dimethylbutanoyl)-4-hydroxypyrrolidine-2-carboxamide]
0.3 nM | 3.59 nM | 116% | – | – | – | CNc1cc(-c2ccc3cc(C#N)cnn23)ncc1-c1nnc(N2CCN(C3CCN(C(=O)c4ccc5c(c4)C(=O)N(C4CCC(=O)NC4=O)C5)CC3)CC2)s1 (centres unmarked) [Example 99, 7-(5-(5-(4-(1-(2-(2,6-dioxopiperidin-3-yl)-3-oxoisoindoline-5-carbonyl)piperidin-4-yl)piperazin-1-yl)-1,3,4-thiadiazol-2-yl)-4-(methylamino)pyridin-2-yl)pyrrolo[1,2-b]pyridazine-3-carbonitrile]
1.1 nM | 15.8 nM | 59% | – | – | – | CNc1cc(-c2ccc3cc(C#N)cnn23)ncc1-c1nnc(C23CCC(NC(=O)CCOCCNc4cccc5c4C(=O)N(C4CCC(=O)NC4=O)C5=O)(CC2)CC3)s1 (centres unmarked) [Example 111, N-(4-(5-(6-(3-cyanopyrrolo[1,2-b]pyridazin-7-yl)-4-(methylamino)pyridin-3-yl)-1,3,4-thiadiazol-2-yl)bicyclo[2.2.2]octan-1-yl)-3-(2-((2-(2,6-dioxopiperidin-3-yl)-1,3-dioxoisoindolin-4-yl)amino)ethoxy)propenamide]
1 nM | 73.3 nM | 99% | – | – | – | CNc1cc(-c2ccc3cc(C#N)cnn23)ncc1-c1nnc(C23CCC(NC(=O)C4CN(C5CCN(c6ccc7c(c6)C(=O)N(C6CCC(=O)NC6=O)C7=O)CC5)C4)(CC2)CC3)s1 (centres unmarked) [Example 103, N-(4-(5-(6-(3-cyanopyrrolo[1,2-b]pyridazin-7-yl)-4-(methylamino)pyridin-3-yl)-1,3,4-thiadiazol-2-yl)bicyclo[2.2.2]octan-1-yl)-1-(1-(2-(2,6-dioxopiperidin-3-yl)-1,3-dioxoisoindolin-5-yl)piperidin-4-yl)azetidine-3-carboxamide]
